Laboratory results from patent US5705487A, “Antithrombotic agents” (priority 1995, dated 1998).
Structures can show the parent of a compound that is named as a salt.

Tests used:
Assay type in all cases: biochemical
[1] = target: T1, Bovine trypsin (Bos taurus, UniProt P00760); experiment: Kass, trypsin chromogenic substrate assay; details: substrate N-Benzoyl-Phe-Val-Arg-p-nitroanilide
T1 construct: Bovine trypsin is purchased from Worthington Biochemicals; purchased Worthington Biochemicals, Freehold, N.J
T1 sequence (P00760 24-246): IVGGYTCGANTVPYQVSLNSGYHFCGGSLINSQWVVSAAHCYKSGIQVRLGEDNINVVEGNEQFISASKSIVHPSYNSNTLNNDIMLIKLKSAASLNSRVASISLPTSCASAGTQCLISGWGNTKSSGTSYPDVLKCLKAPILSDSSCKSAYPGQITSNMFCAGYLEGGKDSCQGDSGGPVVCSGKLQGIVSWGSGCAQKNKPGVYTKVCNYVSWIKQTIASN

[2] = test system: Human Plasma; experiment: Human plasma anticoagulation, thrombin time (TT); details: concentration required to double the clotting time
Protocol: (§1) Dog plasma and rat plasma is obtained from conscious mixed-breed hounds (either sex, Hazelton-LRE, Kalamazoo, Mich., U.S.A.) or from anesthetized male Sprague-Dawley rats (Harlan Sprague-Dawley, Inc., Indianapolis, Ind., U.S.A.) by venipuncture into 3.8 percent citrate. Fibrinogen is prepared from in-date ACD human blood as the fraction I-2 according to previous procedures and specifications. […] Human fibrinogen is also purchased as 98 percent pure/plasmin free from American Diagnostica, Greenwich, Conn. Coagulation reagents ACTIN, Thromboplastin, and Human plasma are from Baxter Healthcare Corp., Dade Division, Miami, Fla. Bovine thrombin from Parke-Davis ([…], Mich.) is used for coagulation assays in plasma.
(§2) Coagulation assay procedures are as previously described. […] A CoAScreener coagulation instrument (American LABor, Inc.) is used for all coagulation assay measurements. The prothrombin time (PT) is measured by adding 0.05 mL saline and 0.05 mL Thromboplastin-C reagent to 0.05 mL test plasma. The activated partial thromboplastin time (APTT) is measured by incubation of 0.05 mL test plasma with 0.05 mL Actin reagent for 120 seconds followed by 0.05 mL CaCl2 (0.02M). The thrombin time (TT) is measured by adding 0.05 mL saline and 0.05 mL thrombin (10 NIH units/mL) to 0.05 mL test plasma. The compounds of Formula I are added to human or animal plasma over a wide range of concentrations to determine prolongation effects on the APTT, PT, and TT assays. Linear extrapolations are performed to estimate the concentrations required to double the clotting time for each assay.

[3] = target: T2, t-PA (Homo sapiens, UniProt P00750); experiment: Kass, t-PA chromogenic substrate assay; details: substrate H-D-Ile-Pro-Arg-p-nitroanilide
T2 construct: purchased American Diagnostica, Greenwich, Conn
T2 sequence (P00750 36-562): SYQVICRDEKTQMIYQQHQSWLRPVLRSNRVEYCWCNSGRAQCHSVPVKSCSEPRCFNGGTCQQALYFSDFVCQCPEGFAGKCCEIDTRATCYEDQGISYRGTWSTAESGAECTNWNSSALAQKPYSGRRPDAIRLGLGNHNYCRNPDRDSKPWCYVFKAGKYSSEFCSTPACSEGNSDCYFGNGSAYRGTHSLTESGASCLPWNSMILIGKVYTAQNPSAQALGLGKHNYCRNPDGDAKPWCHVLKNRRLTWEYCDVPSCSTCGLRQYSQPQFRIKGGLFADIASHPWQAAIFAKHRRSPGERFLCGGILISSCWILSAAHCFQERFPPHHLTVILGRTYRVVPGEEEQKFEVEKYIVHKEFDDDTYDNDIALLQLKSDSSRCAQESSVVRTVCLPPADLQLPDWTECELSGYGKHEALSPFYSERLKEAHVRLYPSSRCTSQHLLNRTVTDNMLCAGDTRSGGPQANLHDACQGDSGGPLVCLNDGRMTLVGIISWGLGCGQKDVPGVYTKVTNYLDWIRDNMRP

[4] = target: Human Thrombin (Homo sapiens, UniProt P00734); experiment: Inhibition of the amidase activity of thrombin (Kass); details: chromogenic substrate N-benzoyl-Phe-Val-Arg-p-nitroanilide; mean over range of concentrations
[5] = target: T3, factor Xa (Homo sapiens, UniProt P00742); experiment: Kass, factor Xa chromogenic substrate assay; details: substrate N-Benzoyl-Ile-Glu-Gly-Arg-p-nitroanilide
T3 construct: Human factors X, Xa, IXa, XIa, and XIIa are purchased; purchased Enzyme Research Laboratories, South Bend, Ind
T3 sequence (P00742 235-488 limits assumed): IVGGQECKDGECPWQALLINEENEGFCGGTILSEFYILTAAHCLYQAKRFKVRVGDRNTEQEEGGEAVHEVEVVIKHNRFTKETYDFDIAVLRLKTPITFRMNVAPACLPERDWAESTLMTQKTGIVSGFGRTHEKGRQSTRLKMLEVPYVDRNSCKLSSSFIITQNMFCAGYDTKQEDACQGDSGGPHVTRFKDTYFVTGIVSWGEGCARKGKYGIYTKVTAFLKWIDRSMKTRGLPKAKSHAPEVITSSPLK
T3 sequence (P00742 41-179 partner limits assumed): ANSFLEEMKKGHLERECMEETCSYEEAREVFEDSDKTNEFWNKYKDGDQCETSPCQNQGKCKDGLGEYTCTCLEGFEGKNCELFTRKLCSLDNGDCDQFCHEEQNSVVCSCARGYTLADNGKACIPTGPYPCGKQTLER

[6] = target: T4, Human plasmin (Homo sapiens, UniProt P00747); experiment: Kass, plasmin chromogenic substrate assay; details: substrate H-D-Val-Leu-Lys-p-nitroanilide
T4 construct: Human plasmin is purchased from Boehringer Mannheim; purchased Boehringer Mannheim, Indianapolis, Ind
T4 sequence (P00747 581-810 limits assumed): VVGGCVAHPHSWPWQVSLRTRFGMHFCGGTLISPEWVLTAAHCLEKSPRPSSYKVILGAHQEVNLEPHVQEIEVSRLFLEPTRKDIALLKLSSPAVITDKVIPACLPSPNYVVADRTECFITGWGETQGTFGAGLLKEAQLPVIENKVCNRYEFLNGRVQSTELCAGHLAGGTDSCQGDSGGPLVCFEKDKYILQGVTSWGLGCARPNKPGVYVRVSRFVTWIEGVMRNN
T4 sequence (P00747 97-580 partner limits assumed): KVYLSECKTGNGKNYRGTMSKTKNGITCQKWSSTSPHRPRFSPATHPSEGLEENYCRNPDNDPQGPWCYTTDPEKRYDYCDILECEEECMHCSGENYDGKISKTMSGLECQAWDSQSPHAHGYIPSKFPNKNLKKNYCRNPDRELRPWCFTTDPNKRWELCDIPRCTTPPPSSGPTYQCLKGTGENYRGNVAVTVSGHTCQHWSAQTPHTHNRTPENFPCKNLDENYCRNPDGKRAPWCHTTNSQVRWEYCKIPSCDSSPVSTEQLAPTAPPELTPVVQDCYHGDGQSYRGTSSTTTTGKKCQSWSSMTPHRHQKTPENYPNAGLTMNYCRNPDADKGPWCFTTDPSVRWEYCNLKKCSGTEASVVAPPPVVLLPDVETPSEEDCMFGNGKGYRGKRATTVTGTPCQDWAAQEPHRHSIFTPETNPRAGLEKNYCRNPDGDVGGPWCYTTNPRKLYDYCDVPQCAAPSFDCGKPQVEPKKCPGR

[7] = test system: Human Plasma; experiment: Human plasma anticoagulation, prothrombin time (PT); details: concentration required to double the clotting time
Protocol: as §1, §2

[8] = test system: Human Plasma; experiment: Human plasma anticoagulation, activated partial thromboplastin time (APTT); details: concentration required to double the clotting time
Protocol: as §1, §2

Compound | Kass × 10^6 (L/mole) Trypsin [1] | Kass × 10^6 (L/mole) t-PA [3] | Kass × 10^6 (L/mole) Human Thrombin [4] | Kass × 10^6 (L/mole) Xa [5] | Kass × 10^6 (L/mole) Plasmin [6] | Human Plasma Anticoagulation 2x Clotting time TT [2] | Human Plasma Anticoagulation 2x Clotting time PT [7] | Human Plasma Anticoagulation 2x Clotting time APTT [8]
N=C(N)c1ccc(CNC(=O)[C@@H]2C[C@H](Oc3ccccc3)CN2C(=O)[C@H]2CCCCN2)cc1 (relative stereo) [Example 22, D-hPro-Pro(4-cis-PhO)-P-NHCH2 -C6 H4 C(NH)NH2.2HCl] | 8.5 × 10^6 L/mole | 0.004 × 10^6 L/mole | 3.0 × 10^6 L/mole | 0.043 × 10^6 L/mole | 0.042 × 10^6 L/mole | 170 ng/mL | 1,000 ng/mL | 2,300 ng/mL
N=C(N)c1ccc(CNC(=O)[C@@H]2C[C@@H]3CCCC[C@@H]3N2C(=O)[C@H]2C[C@H]3CCCC[C@H]3CN2)cc1 (relative stereo) [Example 43, D-3-Piq-cis-Ohi-p-NHCH2 C6 H4 C(NH)NH2.2HCl] | 100. × 10^6 L/mole | 0.01 × 10^6 L/mole | 1.4 × 10^6 L/mole | 0.05 × 10^6 L/mole | 0.30 × 10^6 L/mole | 280 ng/mL | 930 ng/mL | 1,100 ng/mL
CCS(=O)(=O)N[C@H](Cc1ccccc1)C(=O)N1[C@H](C(=O)NCc2ccc(C(=N)N)cc2)C[C@@H]2CCCC[C@@H]21 (relative stereo) [Example 45, EtSO2 -Phe-cis-Ohi-p-NHCH2 C6 H4 C(NH)NH2.HCl] | 110. × 10^6 L/mole | 0.77 × 10^6 L/mole | 610 × 10^6 L/mole | 1.5 × 10^6 L/mole | 1.1 × 10^6 L/mole | 8 ng/mL | 330 ng/mL | 200 ng/mL
N=C(N)c1ccc(CNC(=O)[C@@H]2C[C@@H]3CCCC[C@@H]3N2C(=O)[C@@H](Cc2ccccc2)NCC(=O)O)cc1 (relative stereo) [Example 47, HOOCCH2 -D-Phe-cis-Ohi-p-NHCH2 C6 H4 C(NH)NH2.HCl] | 82. × 10^6 L/mole | 0.01 × 10^6 L/mole | 45 × 10^6 L/mole | 0.04 × 10^6 L/mole | 0.18 × 10^6 L/mole | 12. ng/mL | 270 ng/mL | 140 ng/mL
Cl.N=C(N)c1ccc(CNC(=O)[C@@H]2C[C@@H]3CCCC[C@@H]3N2C(=O)[C@@H](CC2CCCCC2)NCC(=O)O)cc1 (relative stereo) [Example 49, HOOCCH2 -D-Cha-cis-Ohi-p-NHCH2 C6 H4 C(NH)NH2.HCl] | 940. × 10^6 L/mole | 0.04 × 10^6 L/mole | 400 × 10^6 L/mole | 3.4 × 10^6 L/mole | 0.84 × 10^6 L/mole | 5 ng/mL | 130 ng/mL | 130 ng/mL
CCOC(=O)N[C@H](Cc1ccccc1)C(=O)N1CCC[C@H]1C(=O)NCCCCN=C(N)N.Cl [Example 3, EtOCO-D-Phe-Pro-Agm.HCl] | 0.24 × 10^6 L/mole | 0.033 × 10^6 L/mole | 2.1 × 10^6 L/mole | 0.0021 × 10^6 L/mole | 0.0046 × 10^6 L/mole | 590 ng/mL |  | 
N=C(N)c1cccc(CNC(=O)[C@@H]2CCCN2C(=O)[C@@H]2NCC[C@@H]3CCCC[C@@H]32)c1 [Example 25, D-1-Piq-Pro-m-NHCH2 -C6 H4 C(=NH)NH2.HCl] | 0.01 × 10^6 L/mole | 0.01 × 10^6 L/mole | 0.43 × 10^6 L/mole | < 0.001 × 10^6 L/mole | < 0.001 × 10^6 L/mole | 1,430 ng/mL | 40,400 ng/mL | 34,600 ng/mL

Continued, in another order:

Kass × 10^6 (L/mole) Trypsin [1] | Kass × 10^6 (L/mole) t-PA [3] | Kass × 10^6 (L/mole) Human Thrombin [4] | Kass × 10^6 (L/mole) Xa [5] | Kass × 10^6 (L/mole) Plasmin [6] | Compound | Human Plasma Anticoagulation 2x Clotting time TT [2] | Human Plasma Anticoagulation 2x Clotting time PT [7] | Human Plasma Anticoagulation 2x Clotting time APTT [8]
0.0022 × 10^6 L/mole | 0.000042 × 10^6 L/mole | 0.44 × 10^6 L/mole | 0.000042 × 10^6 L/mole | 0.00087 × 10^6 L/mole | Cl.NC[C@H]1CC[C@H](CNC(=O)[C@@H]2CCCN2C(=O)[C@H](N)Cc2ccccc2)CC1 (relative stereo) [Example 12, D-Phe-Pro-NHCH2 -trans-4-(aminomethyl)cyclohexane.HCl] | 1,700 ng/mL |  | 
0.0081 × 10^6 L/mole | 0.0037 × 10^6 L/mole | 1.9 × 10^6 L/mole | 0.0041 × 10^6 L/mole | 0.00022 × 10^6 L/mole | N=C(N)NCCCNC(=O)[C@@H]1CCCN1C(=O)[C@H](N)Cc1ccccc1 [Example 7, D-Phe-Pro-NH(CH2)3 NHC(NH)NH2.HCl] | 490 ng/mL |  | 
0.0036 × 10^6 L/mole | < 0.001 × 10^6 L/mole | 0.064 × 10^6 L/mole | 0.000068 × 10^6 L/mole | 0.0060 × 10^6 L/mole | Cl.NCc1cccc(CNC(=O)[C@@H]2CCCN2C(=O)[C@H](N)Cc2ccccc2)c1 [Example 11, D-Phe-Pro-m-NHCH2 C6 H4 CH2 NH2.HCl] | 8,800 ng/mL |  | 
0.000056 × 10^6 L/mole | < 0.001 × 10^6 L/mole | 0.021 × 10^6 L/mole | 0.00014 × 10^6 L/mole | 0.000046 × 10^6 L/mole | Cl.Nc1ccc(CCNC(=O)[C@@H]2CCCN2C(=O)[C@H](N)Cc2ccccc2)cc1 [Example 14, D-Phe-Pro-P-NHCH2 CH2 C6 H4 NH2.HCl] | 21,000 ng/mL |  | 
0.02 × 10^6 L/mole | 0.0012 × 10^6 L/mole | 0.97 × 10^6 L/mole | 0.0051 × 10^6 L/mole | 0.0017 × 10^6 L/mole | Cl.N=C(N)c1cccc(CNC(=O)[C@@H]2CCCN2C(=O)[C@H](N)Cc2ccccc2)c1 [Example 16, D-Phe-Pro-m-NHCH2 C6 H4 C(NH)NH2.0.75HCl] | 650 ng/mL | 8,500 ng/mL | 8,600 ng/mL
0.21 × 10^6 L/mole | 0.01 × 10^6 L/mole | 13. × 10^6 L/mole | 0.01 × 10^6 L/mole | 0.01 × 10^6 L/mole | CCS(=O)(=O)N[C@H](Cc1ccccc1)C(=O)N1CCC[C@H]1C(=O)NCCc1ccc(C(=N)N)cc1 [Example 26, EtSO2 -D-Phe-Pro-p-NHCH2 CH2 -C6 H4 C(=NH)NH2.HCl] | 37 ng/mL | 750 ng/mL | 870 ng/mL
0.02 × 10^6 L/mole | 0.02 × 10^6 L/mole | 0.29 × 10^6 L/mole | 0.02 × 10^6 L/mole | < 0.001 × 10^6 L/mole | CCS(=O)(=O)N[C@H](Cc1ccccc1)C(=O)N1CCC[C@H]1C(=O)NCCc1cccc(C(=N)N)c1.Cl [Example 27, EtSO2 -D-Phe-Pro-m-NHCH2 CH2 -C6 H4 C(=NH)NH2.HCl] | 1,940 ng/mL | 27,000 ng/mL | 27,800 ng/mL
